Numbered stars: 1 amine (or outer) side, 2 acyl side, 3 side chain; on linkers, the order of the positions; unused ones are H or OH. Side chains are listed from the residue outwards. Peptide text beside a SMILES is read from it. * marks the point of attachment. C20 diacid = O=C(O)CCCCCCCCCCCCCCCCCCC(=O)*; C18 diacid = O=C(O)CCCCCCCCCCCCCCCCC(=O)*; γGlu = O=C(O)[C@H](CCC(=O)[*:2])N[*:1]
What was measured:
[1] = Assay (XVI) T½ and subcutaneous bioavailability in LYD-pigs; assay type: in vivo
Protocol: Assay (XVI)—Determination of T½ and Subcutaneous Bioavailability in LYD-Pigs
Pharmacokinetic (PK) studies in Landrace Yorkshire Duroc crossbreed (LYD) pigs were conducted in order to determine a) the protraction of the mimylin derivative after i.v. administration, and b) the bioavailability of the mimylin derivative after s.c. administration The LYD pig were delivered, treated and acclimatised as described in ASSAY XV above.
In the i.v. and s.c. studies, the mimylin derivative was dissolved in 50 mM phosphate, 70 mM sodium chloride and 0.05% polysorbate 80, pH=8.0 to a concentration of approximately 100 nmol/mL. Animals were dosed with 2 nmol/kg s.c. and 5 nmol/kg i.v.
The animals were dosed subcutaneously or intravenously as follows. […]
The plasma concentration of the respective mimylin derivative was analysed using LC-MS. Individual plasma concentration-time profiles were analysed by a non-compartmental model in Phoenix WinNonlin version 6.3 (Pharsight Inc., Mountain View, Calif., USA).
The resulting terminal half-life was determined based on intravenous administration. T½ is the terminal half-life=In2/λz and was determined from λz, the first order rate constant associated with the terminal (log-linear) portion of the curve, estimated by linear regression of time vs. log concentration.
The absolute bioavailability (F) was calculated as follows: […]

[2] = target: T1, human amylin receptor (Amylin 3(a)/CRE-luc cell membranes) (Homo sapiens, UniProt O60896+P30988); experiment: Assay (V) binding to the human amylin receptor (membrane, SPA); details: 125I-rat amylin, read-out: hAmylin-R binding IC50
T1 construct: host or cells: BHK570
T1 sequence (P30988 25-474): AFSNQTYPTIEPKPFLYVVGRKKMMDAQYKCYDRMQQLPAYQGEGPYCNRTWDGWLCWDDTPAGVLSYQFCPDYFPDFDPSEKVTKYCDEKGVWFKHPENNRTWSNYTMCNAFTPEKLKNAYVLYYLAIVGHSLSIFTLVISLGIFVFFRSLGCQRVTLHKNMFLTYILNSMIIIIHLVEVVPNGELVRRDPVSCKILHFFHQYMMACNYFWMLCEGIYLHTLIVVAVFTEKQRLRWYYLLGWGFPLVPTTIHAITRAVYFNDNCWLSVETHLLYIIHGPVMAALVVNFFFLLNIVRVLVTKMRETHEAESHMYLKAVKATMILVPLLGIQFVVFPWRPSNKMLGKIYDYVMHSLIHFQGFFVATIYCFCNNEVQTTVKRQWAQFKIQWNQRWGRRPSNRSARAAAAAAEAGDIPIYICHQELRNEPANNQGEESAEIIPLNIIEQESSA
T1 sequence (O60896 24-148 partner): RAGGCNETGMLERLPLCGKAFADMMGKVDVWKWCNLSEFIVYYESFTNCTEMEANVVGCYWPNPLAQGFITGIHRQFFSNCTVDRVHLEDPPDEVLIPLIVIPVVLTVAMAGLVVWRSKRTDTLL
Protocol: The binding assay was performed using scintillation proximity assay (SPA) beads (RPNQ0001) from PerkinElmer and cell membranes from the Amylin 3(a)/CRE-luc cells (as described in Assay (II)) were used. Membranes were prepared in the following way; the cells were rinsed with PBS and incubated with Versene for approximately 5 min before harvesting. The cells were flushed with PBS and the cell-suspension was centrifuged for 5 min at 1000 rpm. Cells were homogenized (ultrathurrax) in a buffer containing 20 mM Na-HEPES and 10 mM EDTA (pH 7.4) and centrifuged at 20.000 rpm for 15 min. The resulting pellet was resuspended, homogenized and centrifuged (20.000 rpm, 15 min) in a buffer containing 20 mM Na-HEPES and 0.1 mM EDTA (pH 7.4, buffer 2). The resulting pellet was resuspended in buffer 2 and protein concentration was tested (BCA protein Assay, Pierce). The homogenate was kept cold during the whole procedure. The membranes were kept at −80° C. until use. The assay was performed in a 384 well Optiplate (PerkinElmer) in a total volume of 40 ul. Membranes were mixed with SPA beads. Final concentration of membranes 35 ng/μL final and SPA beads was 0.05 mg/well. […] Samples were analyzed on TopCounter™ (Packard). The IC50 was calculated using (one site binding competition analysis) GraphPad Prism5 as a measure of receptor affinity.

Row | Subcutaneous bioavailability (%) ([1]; LYD-pigs) | LYD-pigs iv PK, t½ ([1]; i.v., harmonic mean, n = 3) [h] | IC50 [2] [nM] | SMILES
1 | 99 | 64 |  | CC(C)C[C@H](NC(=O)[C@H](C)NC(=O)[C@H](C)NC(=O)[C@@H](NC(=O)[C@H](CO)NC(=O)[C@H](CC(C)C)NC(=O)[C@H](CCC(=O)O)NC(=O)[C@H](CO)NC(=O)[C@H](C)NC(=O)[C@H](CCC(=O)O)NC(=O)CCCCCCCCCCCCCCCCC(=O)O)[C@@H](C)O)C(=O)NCC(=O)N[C@@H](CCCNC(=N)N)C(=O)N[C@@H](CC(C)C)C(=O)N[C@@H](CO)C(=O)N[C@@H](C)C(=O)N[C@@H](CCC(=O)O)C(=O)N[C@@H](CC(C)C)C(=O)N[C@@H](Cc1cnc[nH]1)C(=O)N[C@@H](CCC(=O)O)C(=O)N[C@@H](CC(C)C)C(=O)N[C@@H](C)C(=O)N[C@H](C(=O)N[C@@H](CC(C)C)C(=O)N1CCC[C@H]1C(=O)N[C@@H](CCCNC(=N)N)C(=O)N[C@H](C(=O)N[C@@H](CCC(=O)O)C(=O)N[C@H](C(=O)NCC(=O)N1CCC[C@H]1C(=O)N[C@@H](CCC(=O)O)C(=O)N[C@@H](CO)C(=O)N1CCC[C@H]1C(N)=O)[C@@H](C)O)[C@@H](C)O)[C@@H](C)O [Ex. #2, [N-terminal(C18 diacid)]mimylin] ({C18 diacid}-EASELSTAALGRLSAELHELATLPRTETGPESP-NH2)
2 |  |  | 0.309 | CC(C)C[C@H](NC(=O)[C@H](CCC(=O)O)NC(=O)[C@H](C)NC(=O)[C@@H](NC(=O)[C@H](CC(C)C)NC(=O)[C@H](CCCNC(=N)N)NC(=O)CNC(=O)[C@H](CC(C)C)NC(=O)[C@@H](NC(=O)[C@H](C)NC(=O)[C@@H](NC(=O)[C@@H](NC(=O)[C@H](CC(C)C)NC(=O)[C@H](CCC(=O)O)NC(=O)[C@H](CO)NC(=O)[C@H](C)NC(=O)CC[C@H](NC(=O)CCCCCCCCCCCCCCCCC(=O)O)C(=O)O)[C@@H](C)O)[C@@H](C)O)C(C)C)[C@@H](C)O)C(=O)N[C@@H](Cc1c[nH]cn1)C(=O)N[C@@H](CCC(=O)O)C(=O)N[C@@H](CC(C)C)C(=O)N[C@@H](CCC(=O)O)C(=O)N[C@H](C(=O)N[C@@H](CC(C)C)C(=O)N1CCC[C@H]1C(=O)N[C@@H](CCCNC(=N)N)C(=O)N[C@H](C(=O)N[C@@H](CCC(=O)O)C(=O)N[C@H](C(=O)NCC(=O)N[C@H](C(=O)NCC(=O)N[C@H](C(=O)N1CCC[C@H]1C(N)=O)[C@@H](C)O)[C@@H](C)O)[C@@H](C)O)[C@@H](C)O)[C@@H](C)O [compound 105, [N-terminal(C18 diacid-gGlu), des1, 6T, 9V, 14T, 21E, 30T, 31G, 32T]mimylin] ({C18 diacid-γGlu}-ASELTTAVLGRLTAELHELETLPRTETGTGTP-NH2)
3 |  |  | 0.05 | CC(=O)N[C@@H](C)C(=O)N[C@@H](CO)C(=O)N[C@@H](CCCCNC(=O)CC[C@H](NC(=O)CCCCCCCCCCCCCCCCCCC(=O)O)C(=O)O)C(=O)N[C@@H](CC(C)C)C(=O)N[C@@H](CO)C(=O)N[C@H](C(=O)N[C@@H](C)C(=O)N[C@@H](C)C(=O)N[C@@H](CC(C)C)C(=O)NCC(=O)N[C@@H](CCCNC(=N)N)C(=O)N[C@@H](CC(C)C)C(=O)N[C@@H](CO)C(=O)N[C@@H](C)C(=O)N[C@@H](CCC(=O)O)C(=O)N[C@@H](CC(C)C)C(=O)N[C@@H](Cc1c[nH]cn1)C(=O)N[C@@H](CCC(=O)O)C(=O)N[C@@H](CC(C)C)C(=O)N[C@@H](C)C(=O)N[C@H](C(=O)N[C@@H](CC(C)C)C(=O)N1CCC[C@H]1C(=O)N[C@@H](CCCNC(=N)N)C(=O)N[C@H](C(=O)N[C@@H](CCC(=O)O)C(=O)N[C@H](C(=O)NCC(=O)N[C@@H](CO)C(=O)NCC(=O)N[C@@H](CO)C(=O)N1CCC[C@H]1C(N)=O)[C@@H](C)O)[C@@H](C)O)[C@@H](C)O)[C@@H](C)O [compound 68, [N-terminal(acetyl), des1, 4K(C20 diacid-gGlu), 30S, 31G]mimylin] (Ac-ASK([γGlu-C20 diacid])LSTAALGRLSAELHELATLPRTETGSGSP-NH2)
